In ChEMBL document CHEMBL1201862, “PubChem BioAssay data set” (2004):
Active and inactive are the calls of the source.

Columns and labels:
[1] = viability loss in THP-1 monocytes – THP-1 cells, cytotoxicity control for Vif-APOBEC3G degradation inhibitor project, dose response (AID 1117359); format: functional; settings: THP-1
Caspase-6 = molecular target: T1, Caspase-6 (Homo sapiens, UniProt P55212); experiment: inhibition of CASP6 peptide cleavage – biochemical, VEID-R110 fluorescence, cherry-pick, dose response (AID 720632)
T1 sequence (P55212 whole entry): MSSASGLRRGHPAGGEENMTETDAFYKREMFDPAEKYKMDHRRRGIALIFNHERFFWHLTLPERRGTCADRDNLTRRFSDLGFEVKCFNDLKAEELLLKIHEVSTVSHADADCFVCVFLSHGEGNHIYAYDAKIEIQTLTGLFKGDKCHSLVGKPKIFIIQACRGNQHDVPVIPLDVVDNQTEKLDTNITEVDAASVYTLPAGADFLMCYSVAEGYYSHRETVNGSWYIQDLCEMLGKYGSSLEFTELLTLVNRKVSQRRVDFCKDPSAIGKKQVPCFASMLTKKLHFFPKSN

Leucine aminopeptidase = molecular target: T2, Leucine aminopeptidase (Plasmodium falciparum 3D7, UniProt Q8IL11); experiment: P. falciparum M17LAP inhibitors, primary screen, biochemical, fluorogenic H-Leu-NHMec substrate, 1536-well (AID 1619); format: functional
T2 sequence (Q8IL11 whole entry): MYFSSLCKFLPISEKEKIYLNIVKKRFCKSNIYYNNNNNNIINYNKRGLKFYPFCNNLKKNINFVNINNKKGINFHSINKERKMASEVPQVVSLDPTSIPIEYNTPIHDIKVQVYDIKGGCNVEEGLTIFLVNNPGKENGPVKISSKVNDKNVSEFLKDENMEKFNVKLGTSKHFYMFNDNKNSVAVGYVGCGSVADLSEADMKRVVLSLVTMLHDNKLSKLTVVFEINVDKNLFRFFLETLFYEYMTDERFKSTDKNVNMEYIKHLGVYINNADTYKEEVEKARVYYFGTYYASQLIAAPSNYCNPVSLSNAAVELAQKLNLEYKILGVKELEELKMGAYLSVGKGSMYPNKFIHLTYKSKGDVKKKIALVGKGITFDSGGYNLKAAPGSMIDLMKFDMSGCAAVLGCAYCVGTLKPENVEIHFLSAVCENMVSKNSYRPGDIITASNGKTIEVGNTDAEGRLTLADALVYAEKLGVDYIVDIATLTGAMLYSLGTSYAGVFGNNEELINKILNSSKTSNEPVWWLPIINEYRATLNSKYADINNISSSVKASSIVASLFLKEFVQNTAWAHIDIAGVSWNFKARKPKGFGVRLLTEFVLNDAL

Vero = experiment: mammalian cell viability reduction – secondary assay, cytotoxicity control for West Nile virus antiviral project, dose response (AID 1650); format: functional; settings: Chlorocebus sabaeus
[2] = viability of PTEN-deleted HCT116 cells – cell-based, HCT116 PTEN knockout, dose response (AID 1047); format: functional;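 also: HCT116 colon tumor cells with PTEN knocked out; cells exposed to compound for 60 hours before readout; potency for loss of cell viability measured by luminescence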
[3] = viability of HCT116 lacking mutant beta-catenin – cell-based, human colon tumor, dose response (AID 1045); format: functional;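 also: HCT116 colon tumor cells with beta catenin knocked out; cells exposed to compound for 60 hours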
H4 = experiment: Luminescence Cell-Based Dose Response HTS to Identify Activators of 5'UTR Stem-Loop Driven Prion Protein mRNA Translation in H4 Neuroglioblastoma Cells. [Related pubchem assays: 1829 (Project Summary), 1814 (Primary HTS)]; format: functional; settings: Homo sapiens
[4] = Luminescence Cell-Based Dose Response to Identify Activators of 5'UTR Stem-Loop Driven Prion Protein mRNA Translation in H4-C Neuroglioblastoma Cells. [Related pubchem assays: 1829 (Project Summary), 1814 (Primary HTS)]; format: functional
[5] = Luminescence Cell-Based Dose Confirmation to Identify Activators of 5'UTR Stem-Loop Driven Alpha-Synuclein mRNA Translation in H4 Neuroglioblastoma Cells. [Related pubchem assays: 1829 (Project Summary), 1814 (Primary HTS)]; format: functional
[6] = Luminescence Cell-Based Dose Response HTS to Identify Activators of Luciferase Translation or Activity in H4 […] Cells. [Related pubchem assays: 1829 (Project Summary), 1814 (Primary HTS)]; format: functional
[7] = Luminescence Cell-Based Dose Response to Identify Activators of Luciferase Translation or Activity in H4-C Neuroglioblastoma Cells. [Related pubchem assays: 1829 (Project Summary), 1814 (Primary HTS)]; format: functional
Aminopeptidase N = molecular target: T3, Aminopeptidase N (Plasmodium falciparum FcB1/Columbia, UniProt O96935); experiment: malaria alanyl aminopeptidase activity blockers – biochemical, fluorogenic H-Leu-NHMec substrate, 1536-well (AID 1445); set-up: species or system Plasmodium falciparum 3D7, 3D7
T3 sequence (O96935 whole entry): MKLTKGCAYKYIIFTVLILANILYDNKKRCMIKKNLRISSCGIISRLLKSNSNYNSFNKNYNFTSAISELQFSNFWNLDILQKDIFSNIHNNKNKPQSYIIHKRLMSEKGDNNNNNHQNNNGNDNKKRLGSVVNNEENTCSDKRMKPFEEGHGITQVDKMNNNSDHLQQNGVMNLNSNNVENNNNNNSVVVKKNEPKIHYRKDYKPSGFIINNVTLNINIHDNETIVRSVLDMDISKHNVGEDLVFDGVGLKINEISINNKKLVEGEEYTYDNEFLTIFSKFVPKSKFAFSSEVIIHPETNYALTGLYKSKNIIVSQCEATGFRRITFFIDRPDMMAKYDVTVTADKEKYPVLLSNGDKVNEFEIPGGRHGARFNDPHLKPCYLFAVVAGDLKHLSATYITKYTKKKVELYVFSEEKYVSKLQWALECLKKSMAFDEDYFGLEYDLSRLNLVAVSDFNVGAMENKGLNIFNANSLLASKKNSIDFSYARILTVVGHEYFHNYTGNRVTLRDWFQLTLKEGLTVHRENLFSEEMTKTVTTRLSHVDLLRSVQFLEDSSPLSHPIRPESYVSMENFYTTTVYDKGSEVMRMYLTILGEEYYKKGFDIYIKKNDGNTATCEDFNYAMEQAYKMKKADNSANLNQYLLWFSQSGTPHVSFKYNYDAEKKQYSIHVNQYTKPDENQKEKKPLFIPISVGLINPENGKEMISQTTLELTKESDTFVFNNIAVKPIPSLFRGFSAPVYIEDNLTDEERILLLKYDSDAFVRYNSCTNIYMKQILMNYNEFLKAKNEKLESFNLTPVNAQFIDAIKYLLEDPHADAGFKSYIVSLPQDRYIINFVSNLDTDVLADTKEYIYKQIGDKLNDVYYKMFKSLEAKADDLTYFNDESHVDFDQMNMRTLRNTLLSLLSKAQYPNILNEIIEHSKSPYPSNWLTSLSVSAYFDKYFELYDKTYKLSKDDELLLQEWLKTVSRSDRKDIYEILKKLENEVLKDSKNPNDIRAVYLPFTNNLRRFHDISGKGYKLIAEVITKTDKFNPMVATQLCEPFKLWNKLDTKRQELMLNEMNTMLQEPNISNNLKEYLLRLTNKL

[8] = molecular target: T4, 1-phosphatidylinositol 4,5-bisphosphate phosphodiesterase gamma-1 (Homo sapiens, UniProt P19174); experiment: Counterscreen for inhibitors of phospholipase C isozymes (PLC-B3): Fluorescence-based biochemical high throughput dose response assay to identify inhibitors of phospholipase C isozymes (PLC-gamma1).
T4 sequence (P19174 whole entry): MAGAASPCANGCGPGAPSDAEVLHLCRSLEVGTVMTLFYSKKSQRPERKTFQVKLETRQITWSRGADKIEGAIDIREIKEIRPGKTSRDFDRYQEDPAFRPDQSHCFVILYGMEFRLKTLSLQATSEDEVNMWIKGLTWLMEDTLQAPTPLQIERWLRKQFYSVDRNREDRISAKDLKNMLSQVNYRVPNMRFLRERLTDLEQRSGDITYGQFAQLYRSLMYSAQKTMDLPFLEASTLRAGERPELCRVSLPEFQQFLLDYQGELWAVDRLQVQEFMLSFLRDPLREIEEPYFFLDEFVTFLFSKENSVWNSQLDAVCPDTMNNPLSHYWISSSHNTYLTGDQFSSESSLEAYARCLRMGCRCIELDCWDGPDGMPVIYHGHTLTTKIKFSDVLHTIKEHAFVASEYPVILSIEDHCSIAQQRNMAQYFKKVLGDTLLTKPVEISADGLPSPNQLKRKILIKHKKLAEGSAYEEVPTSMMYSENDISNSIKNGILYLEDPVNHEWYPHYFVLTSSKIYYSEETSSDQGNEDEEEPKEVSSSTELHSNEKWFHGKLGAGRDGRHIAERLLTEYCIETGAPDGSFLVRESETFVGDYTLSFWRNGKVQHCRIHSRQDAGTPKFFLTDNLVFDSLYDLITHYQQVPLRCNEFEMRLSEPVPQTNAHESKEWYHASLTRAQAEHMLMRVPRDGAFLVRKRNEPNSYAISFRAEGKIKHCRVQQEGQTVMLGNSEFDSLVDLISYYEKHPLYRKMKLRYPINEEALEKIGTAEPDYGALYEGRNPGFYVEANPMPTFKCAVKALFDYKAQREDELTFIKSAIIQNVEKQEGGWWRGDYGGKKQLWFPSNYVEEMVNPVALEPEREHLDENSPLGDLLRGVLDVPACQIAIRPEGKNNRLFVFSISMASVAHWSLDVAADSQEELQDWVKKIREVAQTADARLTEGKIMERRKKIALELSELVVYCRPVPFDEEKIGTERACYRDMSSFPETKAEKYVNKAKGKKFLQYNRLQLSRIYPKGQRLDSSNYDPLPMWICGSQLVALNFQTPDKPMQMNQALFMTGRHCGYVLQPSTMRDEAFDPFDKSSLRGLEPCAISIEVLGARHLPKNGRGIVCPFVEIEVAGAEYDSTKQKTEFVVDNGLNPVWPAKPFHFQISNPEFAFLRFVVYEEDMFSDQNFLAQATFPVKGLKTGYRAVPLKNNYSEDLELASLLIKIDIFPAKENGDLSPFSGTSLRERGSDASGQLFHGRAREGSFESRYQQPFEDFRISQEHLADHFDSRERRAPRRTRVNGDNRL

[9] = molecular target: T5, 1-phosphatidylinositol 4,5-bisphosphate phosphodiesterase beta-3 (Homo sapiens, UniProt Q01970); experiment: Fluorescence-based biochemical high throughput dose response assay to identify inhibitors of phospholipase C isozymes (PLC-B3).
T5 sequence (Q01970 whole entry): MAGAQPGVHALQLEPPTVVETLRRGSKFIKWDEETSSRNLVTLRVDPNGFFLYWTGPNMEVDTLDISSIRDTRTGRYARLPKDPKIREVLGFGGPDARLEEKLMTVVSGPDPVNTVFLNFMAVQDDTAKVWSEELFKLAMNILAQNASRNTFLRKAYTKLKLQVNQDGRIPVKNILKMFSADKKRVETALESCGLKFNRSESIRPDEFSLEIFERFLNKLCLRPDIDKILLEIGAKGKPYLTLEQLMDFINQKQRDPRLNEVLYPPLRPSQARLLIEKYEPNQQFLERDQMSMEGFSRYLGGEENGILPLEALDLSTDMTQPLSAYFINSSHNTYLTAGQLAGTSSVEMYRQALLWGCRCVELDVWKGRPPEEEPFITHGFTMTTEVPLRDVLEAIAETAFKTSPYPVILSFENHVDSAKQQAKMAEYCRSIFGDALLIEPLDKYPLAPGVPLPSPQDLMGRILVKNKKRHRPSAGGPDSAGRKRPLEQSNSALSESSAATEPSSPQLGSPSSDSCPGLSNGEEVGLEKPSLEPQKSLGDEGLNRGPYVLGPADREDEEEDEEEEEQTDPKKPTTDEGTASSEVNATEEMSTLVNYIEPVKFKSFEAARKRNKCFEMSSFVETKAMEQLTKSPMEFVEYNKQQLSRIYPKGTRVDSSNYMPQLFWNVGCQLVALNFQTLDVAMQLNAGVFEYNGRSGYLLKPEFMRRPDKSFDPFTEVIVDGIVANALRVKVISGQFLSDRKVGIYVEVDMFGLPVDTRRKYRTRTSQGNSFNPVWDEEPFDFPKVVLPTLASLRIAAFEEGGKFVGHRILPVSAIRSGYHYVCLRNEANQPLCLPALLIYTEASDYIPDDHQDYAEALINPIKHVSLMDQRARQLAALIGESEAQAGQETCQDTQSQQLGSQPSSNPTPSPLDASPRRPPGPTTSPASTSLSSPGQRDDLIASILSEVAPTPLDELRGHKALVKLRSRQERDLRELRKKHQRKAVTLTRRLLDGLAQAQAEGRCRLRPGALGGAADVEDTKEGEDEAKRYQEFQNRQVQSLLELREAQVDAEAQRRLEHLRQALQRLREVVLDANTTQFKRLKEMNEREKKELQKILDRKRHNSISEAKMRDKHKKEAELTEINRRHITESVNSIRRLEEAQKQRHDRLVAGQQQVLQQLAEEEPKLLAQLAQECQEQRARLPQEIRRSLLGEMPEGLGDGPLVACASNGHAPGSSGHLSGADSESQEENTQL

[10] = toxicity toward immortalized ovarian surface epithelium – cell-based, plate reader, dry powder samples, cytotoxicity control for PAX8 inhibitor project, dose response (AID 743045); format: functional
[11] = reduced cellular PGC1a acetyl-lysine signal – cell-based, cherry-picked samples, dose response (AID 720514); format: functional;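 also: potency may reflect raised or lowered acetylation signal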
[12] = IGROV1 cell killing – plate reader, dry powder samples, PAX8 inhibitor project, dose response (AID 743043); format: functional, cell-based; settings: IGROV-1
[13] = OVCAR-3 cell viability loss – plate reader, dry powder samples, PAX8 inhibitor project, dose response (AID 743044); format: functional, cell-based

CCNS(=O)(=O)c1ccc(-c2ccc(-n3cnnn3)cc2)cc1
CC50 [1]: > 40 µM (active)

CCN(CCCNC(=O)C1CCCN(S(=O)(=O)CC)C1)c1cccc(C)c1 (centres undefined)
CC50 [1]: > 40 µM (active)

O=C(O)CCC(=O)Nc1sc2c(c1C(=O)Nc1ccccc1)CCCCC2
AC50 (Caspase-6): 45 µM (active) | IC50 (Leucine aminopeptidase): 47 µM (active)

COc1cc(/C=C/C(=O)c2ccc(O)cc2)ccc1OCC#N
CC50 (Vero): 31.9 µM (active) | EC50 [2]: 2.34 µM (active) | EC50 [3]: 1.93 µM (active)

CCn1c(=N)n(CC(=O)c2ccc(Cl)c(Cl)c2)c2ccccc21
EC50 (H4): > 120 µM (not active) | CC50 (Vero): 15.5 µM (active) | EC50 [4]: 0.771 µM (active) | EC50 [5]: 1.18 µM (active) | EC50 [6]: < 0.1 µM (active) | EC50 [7]: 0.474 µM (active)

COc1ccc(/C=C2\SC(=S)NC2=O)cc1OS(=O)(=O)c1ccc(NC(C)=O)cc1
IC50 (Aminopeptidase N): 29.8 µM (active) | AC50 (Caspase-6): 17 µM (active)

CC(C)(C)c1ccc(CNc2nc(-c3ccccn3)nnc2-c2ccccc2)cc1
IC50 [8]: > 122 µM (inactive) | IC50 [9]: > 122 µM (inactive)

COc1cccc(-c2ccc([C@@H]3[C@@H]4CN(Cc5cccc(F)c5)C[C@H]3N4)cc2)c1
AC50 [10]: 36 µM (active) | AC50 [11]: 4.26 µM (active) | AC50 [12]: 34 µM (active) | AC50 [13]: 24.4 µM (active)

O=S(=O)(CS(=O)(=O)c1ccccc1Br)c1ccccc1Br
IC50 [8]: 44.7 µM (inactive) | IC50 [9]: > 122 µM (inactive)

CC12CC[C@H]3[C@@H](CCC4(O)C[C@H](O)CCC34/C=N/NC(=O)c3ccccc3O)C1(O)CCC2C1=CC(=O)OC1 (some centres undefined)
CC50 (Vero): 22.2 µM (active)
